According to US7973034B2, “Amide, aryl sulfonamide, aryl urea, and α,β-diketone derived carboxylesterase inhibitors, and their methods of use” (priority 2003, dated 2011):
Like-named read-outs stand apart in the source and are kept apart here.

Assays:
[1] = target: T1, human small intestine carboxylesterase (hiCE) (Homo sapiens, UniProt O00748); assay: biochemical; assay type: biochemical; details: o-NPA as substrate; for Ki: Table 5, read-out: Ki hiCE; for Ki (hCE1)/Ki (hiCE): selectivity ratio
T1 sequence (O00748 27-559): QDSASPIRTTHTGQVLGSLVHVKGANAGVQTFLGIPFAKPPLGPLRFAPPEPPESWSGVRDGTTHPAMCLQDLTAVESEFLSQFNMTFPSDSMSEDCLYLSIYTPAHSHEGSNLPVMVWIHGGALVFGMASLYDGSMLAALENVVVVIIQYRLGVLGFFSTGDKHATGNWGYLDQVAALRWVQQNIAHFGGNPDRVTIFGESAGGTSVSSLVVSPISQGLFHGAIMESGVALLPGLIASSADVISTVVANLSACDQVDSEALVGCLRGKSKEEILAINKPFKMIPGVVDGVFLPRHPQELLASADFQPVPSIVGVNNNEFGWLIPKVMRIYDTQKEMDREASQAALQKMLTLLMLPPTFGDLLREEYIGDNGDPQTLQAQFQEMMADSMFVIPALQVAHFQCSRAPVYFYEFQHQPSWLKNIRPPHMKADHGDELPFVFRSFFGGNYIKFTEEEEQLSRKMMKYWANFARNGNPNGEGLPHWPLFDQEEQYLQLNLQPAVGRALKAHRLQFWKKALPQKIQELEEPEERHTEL

[2] = target: T2, human liver carboxylesterase (hCE1) (Homo sapiens, UniProt P23141); assay: biochemical; assay type: biochemical; details: o-NPA as substrate; Table 5; read-out: Ki hCE1
T2 sequence (P23141 18-567): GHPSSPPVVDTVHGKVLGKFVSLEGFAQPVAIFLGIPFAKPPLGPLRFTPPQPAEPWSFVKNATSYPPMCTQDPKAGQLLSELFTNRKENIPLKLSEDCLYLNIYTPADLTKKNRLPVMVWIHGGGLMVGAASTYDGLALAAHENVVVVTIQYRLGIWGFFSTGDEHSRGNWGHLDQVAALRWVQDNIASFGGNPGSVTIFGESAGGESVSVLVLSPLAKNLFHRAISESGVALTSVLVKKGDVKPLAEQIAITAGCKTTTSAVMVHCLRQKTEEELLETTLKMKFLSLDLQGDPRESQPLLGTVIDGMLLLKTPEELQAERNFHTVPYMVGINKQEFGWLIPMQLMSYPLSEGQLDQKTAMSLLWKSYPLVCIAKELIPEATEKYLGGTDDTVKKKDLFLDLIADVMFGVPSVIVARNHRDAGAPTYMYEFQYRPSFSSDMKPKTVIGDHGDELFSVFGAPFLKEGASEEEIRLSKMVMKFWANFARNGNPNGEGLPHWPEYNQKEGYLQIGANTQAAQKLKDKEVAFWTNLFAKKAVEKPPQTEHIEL

[3] = target: T3, rabbit liver carboxylesterase (rCE) (Oryctolagus cuniculus, UniProt P12337); assay: biochemical; assay type: biochemical; details: o-NPA as substrate; Table 5; read-out: Ki rCE
T3 sequence (P12337 19-565): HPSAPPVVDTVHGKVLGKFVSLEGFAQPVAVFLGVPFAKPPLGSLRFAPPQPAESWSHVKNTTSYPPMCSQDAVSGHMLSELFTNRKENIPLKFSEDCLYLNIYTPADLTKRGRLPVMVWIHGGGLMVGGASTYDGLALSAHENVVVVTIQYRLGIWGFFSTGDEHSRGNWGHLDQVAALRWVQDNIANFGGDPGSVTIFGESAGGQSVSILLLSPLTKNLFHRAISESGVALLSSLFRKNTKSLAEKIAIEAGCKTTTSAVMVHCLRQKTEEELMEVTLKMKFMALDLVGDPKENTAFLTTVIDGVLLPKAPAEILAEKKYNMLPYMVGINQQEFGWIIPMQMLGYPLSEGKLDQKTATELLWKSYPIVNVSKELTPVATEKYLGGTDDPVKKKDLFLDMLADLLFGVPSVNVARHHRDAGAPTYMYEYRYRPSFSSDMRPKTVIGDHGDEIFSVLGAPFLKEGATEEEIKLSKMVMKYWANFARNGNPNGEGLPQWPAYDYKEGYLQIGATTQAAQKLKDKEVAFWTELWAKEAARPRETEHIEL

[4] = target: T4, human acetylcholinesterase (hAcChE) (Homo sapiens, UniProt P22303); assay: biochemical; assay type: biochemical; details: acetylthiocholine substrate; Table 5; read-out: Ki hAcChE
T4 construct: purchased Sigma Biochemicals (St. Louis, Mo.)
Experimental: Data was transferred to GraphPad Prism software, and Ki values were calculated as described in the Example above.

[5] = target: human butyrylcholinesterase (hBuChE) (Homo sapiens, UniProt P06276); assay: biochemical
[6] = target: T5, hiCE (Homo sapiens, UniProt O00748); assay: Inhibition of hiCE-mediated activation of CPT-11 (SN-38 by HPLC); assay type: biochemical
T5 sequence (O00748 27-559): T1 sequence (O00748 27-559)
Experimental: Since the sulphonamide compounds identified herein are competitive inhibitors of hiCE, their activity is dependant upon the substrate used. To access the ability of these compounds to inhibit the hiCE-mediated activation of CPT-11, Ki values were determined using CPT-11 as the substrate.
CPT-11 concentrations were fixed at […], and inhibitor concentrations varied from 1 nM to 10 μM. Following incubation for an hour at 37° C., the levels of SN-38 in the reaction mixture was determined by High Performance Liquid Chromatography (HPLC).

[7] = target: T6, human intestinal carboxylesterase in U373MGhiCE cells (Homo sapiens, UniProt O00748); assay: Inhibition of intracellular carboxylesterase in U373MGhiCE cells; assay type: cell-based
T6 construct: expressed in transfected cells; host or cells: U373MG human glioma cells (U373MGhiCE)
T6 sequence (O00748 27-559): T1 sequence (O00748 27-559)
Experimental: To monitor the ability of the compounds to cross the cell membrane and inhibit carboxylesterase activity intracellularly, an assay using human tumor cells expressing hiCE was devised. U373MGhiCE (a human glioma cell line transfected with a plasmid expressing hiCE) were plated in T25 flasks and allowed to grow to confluency (approximately 2-5×10^5 cells). Inhibitors were then added at a final concentration of […], and incubation allowed to continue for 1 hour. At this time, the cells were washed extensively with 5 ml of complete media and 2×5 ml of Hanks balanced salt solution, and cell extracts were prepared. Carboxylesterase activity was then determined using o-NPA as a substrate.
Table 8 sets forth the level of intracellular enzyme inhibition following incubation of human glioblastoma tumor cells expressing human intestinal carboxylesterase with 10 μM of each compound identified in Table 3.

[8] = human plasma in vitro; cited from earlier work
[9] = rat plasma, within 1 hour of incubation; cited from earlier work
[10] = mouse plasma, within 1 hour of incubation; cited from earlier work
[11] = test system: carboxylesterases; assay: General carboxylesterase inhibition; assay type: biochemical
Experimental: Carboxylesterase (CE) inhibition was determined by a spectroscopic assay using o-nitrophenyl acetate (o-NPA) as a substrate. Recombinant CEs produced from expression in Spodoptera frugiperda Sf9 insect cells via baculovirus were purified from serum-free culture media for the enzyme inhibition studies. Enzymes were incubated in 200 μl of 50 mM Hepes (pH 7.4) containing 3 mM o-NPA. Conversion of the o-NPA to nitrophenol was monitored by measuring the change in the absorbance at 420 nm. Absorbance readings were taken every 15 seconds for 2 minutes, and data transferred to a computer data spreadsheet. […] The final DMSO concentration was always 1% or less. […] The above procedure was then repeated using the same assay, with inhibitor concentrations ranging from 1 nM to 100 μM. Results were then transferred to Prism software (GraphPad Software, Inc., San Diego, Calif.) and Ki values determined using sigmoidal curve fits of the data. Routinely, all analyses were performed in duplicate, and Ki values determined using at least 8 inhibitor concentrations.

[12] = test system: chicken liver carboxylesterase; details: cited from earlier work
[13] = CPT-11 as substrate (100 μm), 1 hour at 37° C., read-out: Ki hiCE

T4 sequence (P22303 32-614): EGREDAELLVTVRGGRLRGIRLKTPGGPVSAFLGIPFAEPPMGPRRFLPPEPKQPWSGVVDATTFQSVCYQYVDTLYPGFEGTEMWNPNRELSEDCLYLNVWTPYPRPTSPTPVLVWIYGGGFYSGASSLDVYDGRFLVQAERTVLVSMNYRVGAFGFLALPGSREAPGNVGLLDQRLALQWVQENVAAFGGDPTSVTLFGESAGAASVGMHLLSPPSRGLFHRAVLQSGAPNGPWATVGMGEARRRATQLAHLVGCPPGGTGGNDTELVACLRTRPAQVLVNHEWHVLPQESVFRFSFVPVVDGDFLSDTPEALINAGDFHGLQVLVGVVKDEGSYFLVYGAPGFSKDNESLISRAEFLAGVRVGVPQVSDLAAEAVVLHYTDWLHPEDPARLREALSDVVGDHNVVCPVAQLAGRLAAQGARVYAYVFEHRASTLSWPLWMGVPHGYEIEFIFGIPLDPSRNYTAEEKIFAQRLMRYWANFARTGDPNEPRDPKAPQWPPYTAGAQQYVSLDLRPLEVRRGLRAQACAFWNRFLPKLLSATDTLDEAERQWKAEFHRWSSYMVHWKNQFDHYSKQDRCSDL
Chain of human butyrylcholinesterase (hBuChE) (P06276 29-602): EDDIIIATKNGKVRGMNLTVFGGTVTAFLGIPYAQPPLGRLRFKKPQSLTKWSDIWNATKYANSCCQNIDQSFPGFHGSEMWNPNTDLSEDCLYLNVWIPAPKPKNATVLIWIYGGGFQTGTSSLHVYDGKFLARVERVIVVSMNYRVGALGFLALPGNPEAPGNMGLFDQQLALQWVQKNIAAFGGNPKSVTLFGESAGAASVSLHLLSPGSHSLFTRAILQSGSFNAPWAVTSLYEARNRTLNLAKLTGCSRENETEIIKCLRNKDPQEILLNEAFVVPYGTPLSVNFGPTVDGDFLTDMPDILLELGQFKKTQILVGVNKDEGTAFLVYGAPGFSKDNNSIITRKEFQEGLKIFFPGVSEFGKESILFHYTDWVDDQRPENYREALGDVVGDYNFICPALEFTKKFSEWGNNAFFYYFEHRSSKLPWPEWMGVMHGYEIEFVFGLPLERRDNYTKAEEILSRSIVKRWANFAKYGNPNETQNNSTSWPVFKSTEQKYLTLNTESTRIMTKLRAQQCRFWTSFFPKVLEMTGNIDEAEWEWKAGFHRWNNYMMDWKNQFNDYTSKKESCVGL

CS(=O)(=O)Nc1ccc(SSc2ccc(NS(C)(=O)=O)cc2)cc1 [Compound 50, N-[4-({4-[(methylsulfonyl)amino]phenyl}dithio)phenyl]methanesulfonamide]
Ki [1]: 767 ± 285 nM | Ki (hCE1)/Ki (hiCE) [1]: >125 | Ki [2]: > 100 µM | Ki [3]: 739 ± 384 nM | Ki [4]: > 100 µM | Ki [5]: > 100 µM | Ki [6, 13]: > 100000 nM | inhibition at 10 µM [7]: 14.6%

Cc1cc(NS(=O)(=O)c2ccccc2)ccc1NS(=O)(=O)c1ccccc1 [Compound 49, N-{2-methyl-4-[(phenylsulfonyl)amino]phenyl}benzene sulfonamide]
Ki [1]: 365 ± 87 nM | Ki (hCE1)/Ki (hiCE) [1]: >250 | Ki [2]: > 100 µM | Ki [3]: 3230 nM | Ki [4]: > 100 µM | Ki [5]: > 100 µM | Ki [6]: 238 ± 29 nM | inhibition at 10 µM [7]: 7.6%

O=S(=O)(Nc1ccc(Oc2ccccc2)cc1)c1ccc(Br)cc1 [Compound 46, 4-bromo-N-(4-phenoxyphenyl)benzenesulfonamide]
Ki [1]: 165 ± 33 nM | Ki (hCE1)/Ki (hiCE) [1]: >600 | Ki [2]: > 100 µM | Ki [3]: 319 ± 37 nM | Ki [4]: > 100 µM | Ki [5]: > 100 µM | Ki [6, 13]: > 100000 nM | inhibition at 10 µM [7]: 0%

O=S(=O)(Nc1ccc(NS(=O)(=O)c2ccc(Cl)cc2)c2ccccc12)c1ccc(Cl)cc1 [Compound 47, 4-chloro-N-(4-{[(4-chlorophenyl)sulfonyl]amino}-1-naphthyl)benzenesulfonamide]
Ki [1]: 194 ± 23 nM | Ki (hCE1)/Ki (hiCE) [1]: >500 | Ki [2]: > 100 µM | Ki [3]: > 100000 nM | Ki [4]: > 100 µM | Ki [5]: > 100 µM | Ki [6, 13]: > 100000 nM | inhibition at 10 µM [7]: 9.2%

CCc1c2c(nc3ccc(OC(=O)N4CCC(N5CCCCC5)CC4)cc13)-c1cc3c(c(=O)n1C2)COC(=O)[C@]3(O)CC [CPT-11, 7-ethyl-10-[4-(1-piperidino)-1-piperidino]carbonyloxycamptothecin]
level of activation of CPT-11 by plasma [8]: very low | drug converted to SN-38 [9]: greater than 50% | drug converted to SN-38 [10]: greater than 50%

O=S(=O)(Nc1c(F)c(F)c(NS(=O)(=O)c2ccc(Cl)cc2)c(F)c1F)c1ccc(Cl)cc1 [Compound 59]
Ki [1]: 41.5 ± 6.5 nM | Ki (hCE1)/Ki (hiCE) [1]: >2,400 | Ki [2]: > 100 µM | Ki [3]: 522 ± 144 nM | Ki [4]: > 100 µM | Ki [5]: > 100 µM | Ki [6]: 110 ± 23 nM | inhibition at 10 µM [7]: 8.3%

O=C(C(=O)c1ccccc1)c1ccccc1 [Compound 2, Diphenylethane-1,2-dione]
found to be general carboxylesterase inhibitors [11]: general carboxylesterase inhibitors | inhibition of chicken liver carboxylesterase [12]: inhibition

O=S(=O)(Nc1ccc(NS(=O)(=O)c2ccccc2)cc1)c1ccccc1 [Compound 51, N-{4-[(phenylsulfonyl)amino]phenyl}benzene sulfonamide]
Ki [1]: 1060 nM | Ki (hCE1)/Ki (hiCE) [1]: >90 | Ki [2]: > 100 µM | Ki [3]: 1550 nM | Ki [4]: > 100 µM | Ki [5]: > 100 µM | Ki [6, 13]: 892 ± 67 nM | inhibition at 10 µM [7]: 5.5%

Cc1cc(C)c(S(=O)(=O)Nc2ccccc2)cc1S(=O)(=O)Nc1ccccc1 [Compound 48, 4,6-dimethyl-N,N′-diphenylbenzene-1,3-disulfonamide]
Ki [1]: 218 ± 45 nM | Ki (hCE1)/Ki (hiCE) [1]: >450 | Ki [2]: > 100 µM | Ki [3]: > 100000 nM | Ki [4]: > 100 µM | Ki [5]: > 100 µM | Ki [6, 13]: > 100000 nM | inhibition at 10 µM [7]: 8.9%
